Publication PMC10050424, “Structural basis of the substrate recognition and inhibition mechanism of Plasmodium falciparum nucleoside transporter PfENT1” (Nature Communications, 2023)
Several values for one entry are separate records, joined by “and”; a condition that tells them apart may be missing. Identical values can stand only once.

Legend:
PfENT1 mutant R291A = target: T1, PfENT1 mutant R291A (Plasmodium falciparum, UniProt Q8IDM6, R291A); assay: ITC binding to PfENT1 mutant R291A
T1 construct: 10xHis (N); made in house; host or cells: Sf9 insect cells (baculovirus)
T1 sequence (Q8IDM6 whole entry R291A): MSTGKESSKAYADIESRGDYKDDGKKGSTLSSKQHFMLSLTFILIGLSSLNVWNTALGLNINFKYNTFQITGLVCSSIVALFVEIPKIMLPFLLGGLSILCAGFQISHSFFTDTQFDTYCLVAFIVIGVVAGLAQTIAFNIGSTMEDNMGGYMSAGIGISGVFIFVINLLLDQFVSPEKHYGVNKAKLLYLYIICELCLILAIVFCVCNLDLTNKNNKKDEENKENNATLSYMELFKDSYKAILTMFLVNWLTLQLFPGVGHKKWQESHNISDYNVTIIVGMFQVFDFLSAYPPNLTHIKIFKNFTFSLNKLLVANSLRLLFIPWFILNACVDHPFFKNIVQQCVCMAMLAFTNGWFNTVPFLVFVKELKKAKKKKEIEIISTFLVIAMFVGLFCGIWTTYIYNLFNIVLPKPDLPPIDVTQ
Description: (§1) For the in vitro binding assay, Sf9 cells were solubilized in lysis buffer containing 2% (w/v) n-dodecyl-β-D-maltopyranoside (DDM, Anatrace) and protease inhibitor cocktail (0.8 μM aprotinin, 2 μM pepstatin, and 5 μg/ml leupeptin) at 4 °C for 2 h. The soluble supernatant was collected via centrifugation and incubated with Ni-NTA resin (QIAGEN) at 4 °C for 1 h. The resin was washed and eluted using lysis buffer containing 0.05% (w/v) DDM and 30 mM/300 mM imidazole. The protein was further purified by size-exclusion chromatography (Superdex 200 Increase 10/300; GE Healthcare) in buffer containing 25 mM MES (pH 6.0), 150 mM NaCl, and 0.05% (w/v) DDM. The peak fractions were pooled and concentrated to 10~50 μM for the nucleoside-binding assay.
(§2) The binding affinity between wild-type and mutant PfENT1 with nucleosides and GSK4 was measured using a Micro-Cal ITC200 (Malvern). All proteins were prepared in 25 mM MES (pH 6.0), 150 mM NaCl, and 0.05% (w/v) DDM. Nucleosides (5~10 mM) and GSK4 (100-200 μM) dissolved in the same buffer were titrated against 20–50 μM PfENT1 proteins at 25 °C. PEAQ-ITC analysis software (MicroCal) was employed to analyze the data. All titrations were repeated three times.

PfENT1 = target: T2, PfENT1 (Plasmodium falciparum, UniProt Q8IDM6); assay: cell-based; format: cell-based; conditions: for uptake of inosine: time course, PfENT1 knock-in yeast
T2 construct: expressed in transfected cells; host or cells: S. cerevisiae BY4741, FUI1 deleted, PfENT1 knock-in under the TEF1 promoter
T2 sequence (Q8IDM6 whole entry): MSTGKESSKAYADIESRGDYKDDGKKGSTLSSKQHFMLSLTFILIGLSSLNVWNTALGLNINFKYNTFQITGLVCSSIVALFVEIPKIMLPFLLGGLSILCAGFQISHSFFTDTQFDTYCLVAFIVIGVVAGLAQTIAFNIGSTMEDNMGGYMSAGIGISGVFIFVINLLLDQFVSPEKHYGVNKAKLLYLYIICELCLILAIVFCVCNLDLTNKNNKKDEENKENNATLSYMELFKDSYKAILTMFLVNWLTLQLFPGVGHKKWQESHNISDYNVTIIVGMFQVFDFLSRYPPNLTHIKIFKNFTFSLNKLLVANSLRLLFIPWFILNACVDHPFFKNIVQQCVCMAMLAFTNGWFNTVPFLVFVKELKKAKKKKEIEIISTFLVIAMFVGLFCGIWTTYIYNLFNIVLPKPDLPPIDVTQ
Description: The S. cerevisiae strain (ATCC, #201388) BY4741 (MATa his3Δ1 leu2Δ0 met15Δ0 ura3Δ0) was used as the starting yeast strain. Yeast strains were cultured in YPD medium (20 g/L peptone, 10 g/L yeast extract, and 20 g/L dextrose). The antibiotic G418 was supplemented at a concentration of 250 μg/mL to select strains carrying the KanMX marker. E. coli DH5α was used for subcloning.
Codon-optimized PfENT1 (for expression in yeast) was synthesized by Sangon Biotech. The carboxyl terminus of PfENT1 was HA-tagged through PCR. The TEF1p promoter and PGK1t terminator were amplified from BY4741 genomic DNA. Overlap PCR was applied to generate the gene overexpression cassette of PfENT1 (TEF1p promoter-PfENT1-PGK1t terminator). The two 600-bp homologous arms corresponding to the upstream and downstream regions of the FUI1 gene were amplified from BY4741 genomic DNA. The gene cassette of the ‘TEF1p promoter-PfENT1-PGK1t terminator’ together with the two homologous arms was cloned into the PUC19 plasmid through Gibson assembly, generating the final plasmid PUC19: PfENT1. PfENT1 mutations were generated using point mutation and verified by Sanger sequencing. The spacer targeting the FUI1 gene (5ʹ-[…]-3ʹ) was cloned into the pCas-BsaI plasmid to generate the pCas-FUI1 plasmid as described previously.
To obtain fui1Δ and PfENT1 (or its mutations) overexpression in the S. cerevisiae strain, 1 μg pCas-FUI1 plasmid and 15 μg PUC19:PfENT1 were transformed into yeast using the LiAc/ssDNA/PEG method. Then, the strains were plated on a YPD plate supplemented with G418. Clones were screened using PCR and finally verified through Sanger sequencing.
Cells were grown overnight in YPD medium to mid-log phase and harvested by centrifugation at 3000 × g for 5 min. Cells were washed three times in 2% glucose. The yeast pellets were resuspended in uptake assay buffer (25 mM Tris-HCl 8.0,150 mM NaCl, 2% glucose) to a final concentration of 2 × 10^8 cells mL^–1. The uptake assay was initiated by combining 100 μL of prewarmed (30 °C) cells and 100 μL uptake assay buffer mixture: 25 mM Tris-HCl 8.0, 150 mM NaCl, 2% glucose, 200 nM [^3H] Inosine ([8-^3H] inosine; 20 Ci mmol^–1, American Radiolabeled Chemicals). Cells were removed onto a membrane filter at the appropriate times to generate the time course. After washing by vacuum filtration with 2 ml ice-cold 2% glucose, the radioactivity retained on the filter was incubated with 1 mL of ULTIMA GOLD scintillation fluid (Perkin Elmer, 77-15311). Counts were measured using a liquid scintillation analyzer (Perkin Elmer, Tri-Carb 5110TR).
For competition assays, the indicated nucleosides and nucleobase were added into the external uptake assay buffer (25 mM Tris-HCl 8.0, 150 mM NaCl, and 2% glucose) to a final concentration of 5 mM, and the transport reaction was stopped at 30 min. The reading of the competition assays was normalized against the one without a competitor, which had the uptake of radiolabeled inosine set as 100%. All uptake assays were performed at 30 °C and repeated three times. Error bars represent the s.d. The final result was analyzed in the GraphPad Prism 8 software ([…]).

PfENT1 mutant W53A = target: T3, PfENT1 mutant W53A (Plasmodium falciparum, UniProt Q8IDM6, W53A); assay: ITC binding to PfENT1 mutant W53A
T3 construct: 10xHis (N); made in house; host or cells: Sf9 insect cells (baculovirus)
T3 sequence (Q8IDM6 whole entry W53A): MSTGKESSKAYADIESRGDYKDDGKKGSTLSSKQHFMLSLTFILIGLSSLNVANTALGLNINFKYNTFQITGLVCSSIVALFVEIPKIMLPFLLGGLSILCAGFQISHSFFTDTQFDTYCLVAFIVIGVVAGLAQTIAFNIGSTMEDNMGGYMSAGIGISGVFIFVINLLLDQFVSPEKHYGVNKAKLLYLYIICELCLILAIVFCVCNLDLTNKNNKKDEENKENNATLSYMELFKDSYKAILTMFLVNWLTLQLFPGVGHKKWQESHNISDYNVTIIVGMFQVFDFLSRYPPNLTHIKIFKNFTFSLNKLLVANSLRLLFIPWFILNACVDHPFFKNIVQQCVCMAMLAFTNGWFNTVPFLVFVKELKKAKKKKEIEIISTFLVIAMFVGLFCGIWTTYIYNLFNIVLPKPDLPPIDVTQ
Description: as §1, §2

PfENT1Y190A = target: T4, PfENT1Y190A (Plasmodium falciparum, UniProt Q8IDM6, Y190A); assay: ITC binding to PfENT1Y190A; conditions: compared with wild type
T4 construct: 10xHis (N); made in house; host or cells: Sf9 insect cells (baculovirus)
T4 sequence (Q8IDM6 1-422 Y190A): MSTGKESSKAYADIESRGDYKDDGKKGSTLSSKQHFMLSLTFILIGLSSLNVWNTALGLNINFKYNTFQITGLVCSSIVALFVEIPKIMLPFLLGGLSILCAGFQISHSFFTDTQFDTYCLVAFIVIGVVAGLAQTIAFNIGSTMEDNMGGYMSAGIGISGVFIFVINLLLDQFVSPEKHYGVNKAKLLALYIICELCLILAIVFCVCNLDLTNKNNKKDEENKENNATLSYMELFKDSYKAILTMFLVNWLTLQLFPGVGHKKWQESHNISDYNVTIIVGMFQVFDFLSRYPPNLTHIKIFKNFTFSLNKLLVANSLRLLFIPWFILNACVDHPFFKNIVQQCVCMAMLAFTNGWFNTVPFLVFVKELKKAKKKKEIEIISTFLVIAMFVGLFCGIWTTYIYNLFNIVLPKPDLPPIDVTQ
Description: as §1, §2

Structure (SMILES): OC[C@H]1O[C@@H](n2cnc3c(O)ncnc32)[C@H](O)[C@@H]1O [Inosine, inosine]
- binding affinity (Kd) (PfENT1 mutant R291A; ITC, Fig. 3c, mutant R291A, mean ± SD (n = 3)): maintains inosine binding
- Kd (PfENT1 mutant R291A; Kd, Mean and Mean ± SD, source data Figure 3c, construct R291A): 46.7 µM
- Kd (PfENT1 mutant R291A; Kd, N=3 (individual experiments), source data Figure 3c, construct R291A): 53 µM and 56 µM and 31 µM
- Kd (PfENT1 mutant R291A; binding affinity (Kd), ITC, Fig. 3c, mutant R291A, mean ± SD (n = 3)): 46.7 ± 13.6 µM
- remaining activity at 5000 µM (PfENT1; 0.5 h, read-out: Uptake of [3H]-inosine (Percentage of PfENT1 WT), competition by nonradioactive nucleoside/nucleobase 5 mM, 30 min, 30 °C, uptake without competitor set as 100%, Fig. 1c): 11%
- Uptake of [3H]-inosine (Percentage of PfENT1 WT) (PfENT1; competition by nonradioactive nucleoside/nucleobase 5 mM, 30 min, 30 °C, uptake without competitor set as 100%, Fig. 1c): abolished
- uptake of inosine (PfENT1; time 1 (min), 3 independent experiments): 0.8242 fmol per million cells and 1.048 fmol per million cells and 1.269 fmol per million cells
- uptake of inosine (PfENT1; time 5 (min)): 1.492 fmol per million cells and 1.522 fmol per million cells and 1.615 fmol per million cells
- uptake of inosine (PfENT1; time 10 (min)): 2.864 fmol per million cells and 2.823 fmol per million cells and 2.628 fmol per million cells
- uptake of inosine (PfENT1; time 20 (min)): 4.048 fmol per million cells and 4.1747 fmol per million cells and 4.441 fmol per million cells
- uptake of inosine (PfENT1; time 30 (min)): 5.946 fmol per million cells and 6.16 fmol per million cells and 6.198 fmol per million cells
- uptake of inosine (PfENT1; time 45 (min)): 10.3307 fmol per million cells and 9.87 fmol per million cells and 9.474 fmol per million cells
- uptake of inosine (PfENT1; time 60 (min)): 11.051 fmol per million cells and 11.1951 fmol per million cells and 11.2042 fmol per million cells
- Kd (PfENT1 mutant W53A; Kd, Mean and Mean ± SD, source data Figure 3c, construct W53A): 1.83 mM
- Kd (PfENT1 mutant W53A; Kd, N=3 (individual experiments), source data Figure 3c, construct W53A): 1.9 mM and 1.94 mM and 1.65 mM
- Kd (PfENT1 mutant W53A; binding affinity (Kd), ITC, Fig. 3c, mutant W53A, mean ± SD (n = 3)): 1.83 ± 0.157 mM
- weaker binding than the wild type (PfENT1 mutant W53A; inosine binding, W53A versus wild type): 30 fold
- inosine-binding affinity (PfENT1Y190A): similar
